A word on the inhibition: it is the drop in the measured response relative to a control, in per cent.

Activity calls are given as the source filed them. The calls are words filed in the database; no cut-off is given here.

The record followed here is ChEMBL document CHEMBL5226351, “Sycosterol A, an α-Synuclein Inhibitory Sterol from the Australian Ascidian Sycozoa cerebriformis” (J Nat Prod, 2021).

For experiment [1], the target named is Alpha-synuclein (Homo sapiens) (UniProt P37840). In words: Inhibition of human alpha-Synuclein aggregation at compound:protein ratio of 1:5 incubated for 72 hrs under shaking condition by Thioflavin T based fluorimeter assay relative to control. As to conditions: concentration not given here.
Experiment [2] shares this target. In words: Binding affinity to human alpha-Synuclein at compound to protein molar ratio of 5:1 incubated for 3 hrs by mass spectroscopy analysis.
Experiment [3] shares this target. In words: Inhibition of human alpha-Synuclein aggregation at 400 uM incubated for 72 hrs under shaking condition by Thioflavin T based fluorimeter assay relative to control.

As for `O=C(O[C@@H]1Cc2c(O)cc(O)cc2O[C@@H]1c1cc(O)c(O)c(O)c1)c1cc(O)c(O)c(O)c1`, the inhibition in experiment [1] is 93.6%. Also, the outcome in experiment [2] was Active.
Take `CC(CCC[C@@H](C)[C@H]1[C@H](O)[C@@H](O)[C@@H]2[C@]1(C)CC[C@@H]1[C@@]3(C)CC[C@@H](O)C[C@@H]3C[C@@H](O)[C@]12O)COS(=O)(=O)O` (some centres undefined): the inhibition in experiment [3] stood at 46.2%. The result in experiment [2] was Active.
